Reference: patent US20230097157A1, “Bicyclic Pyridin-2-one and pyrimidin-4-one Derivatives Useful As a Factor XIa Inhibitors” (Janssen Pharmaceutica NV, priority 2021, published 2023)
Read-outs that look alike come from different tables or passages of the source.

What was measured:
[1] = target: human plasma kallikrein (Homo sapiens, UniProt P03952); experiment: Kallikrein inhibition assay (FLINT) utilizing a quenched AMC peptide substrate Z-Gly-Pro-Arg-AMC; format: biochemical; conditions: kinetic (KIN) reads, read-out: Kallikrein KIN Inh IC50
In short: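 Human plasma kallikrein (2 nM final) pre-incubated 30 min with compound (11-point 3-fold series, top 1 μM, 2% DMSO), then 50 μM Z-Gly-Pro-Arg-AMC added. Buffer 50 mM Tris pH 7.5, 100 mM NaCl, 5 mM CaCl2, BSA, CHAPS. AMC fluorescence (340/440 nm) read kinetically over 30 min at room temperature, IC50 by 4-parameter logistic fit.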

[2] = target: Factor XIa (Homo sapiens, UniProt P03951); experiment: Factor XIa inhibition assay (FLINT) utilizing a fluorophore-quencher pair peptide substrate 5Fam-[…]-K5Tamra; format: biochemical; conditions: kinetic (KIN) reads; values in nM; read-out: FXIa KIN Inh IC50
In short: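 FXIa was preincubated with compound for 30 min at room temperature in Tris pH 7.5 buffer containing CaCl2, BSA and CHAPS, then reacted with 15 μM quenched 5Fam/Tamra peptide substrate. Fluorescence (485/520 nm) was read kinetically every 5 min for 30 min.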

Sequence of Factor XIa (P03951 388-625 limits assumed): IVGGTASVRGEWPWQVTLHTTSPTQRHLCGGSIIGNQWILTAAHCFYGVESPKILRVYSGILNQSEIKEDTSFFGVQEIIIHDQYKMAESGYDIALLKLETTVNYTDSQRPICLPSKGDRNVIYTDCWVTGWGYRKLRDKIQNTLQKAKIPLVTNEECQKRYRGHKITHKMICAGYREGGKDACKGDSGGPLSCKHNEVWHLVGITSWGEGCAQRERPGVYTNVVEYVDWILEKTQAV
Sequence of Factor XIa (P03951 19-387 partner limits assumed): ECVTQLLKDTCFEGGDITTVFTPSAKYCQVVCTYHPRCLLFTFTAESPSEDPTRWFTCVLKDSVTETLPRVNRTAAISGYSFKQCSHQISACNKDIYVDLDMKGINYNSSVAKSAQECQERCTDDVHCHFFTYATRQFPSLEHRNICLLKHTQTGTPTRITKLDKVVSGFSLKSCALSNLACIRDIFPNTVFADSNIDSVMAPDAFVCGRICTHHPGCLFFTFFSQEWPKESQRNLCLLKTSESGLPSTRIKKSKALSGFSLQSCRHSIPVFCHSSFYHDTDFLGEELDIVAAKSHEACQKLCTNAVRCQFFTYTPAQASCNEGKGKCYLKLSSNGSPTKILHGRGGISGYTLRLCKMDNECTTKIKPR
Sequence of human plasma kallikrein (P03952 391-638 limits assumed): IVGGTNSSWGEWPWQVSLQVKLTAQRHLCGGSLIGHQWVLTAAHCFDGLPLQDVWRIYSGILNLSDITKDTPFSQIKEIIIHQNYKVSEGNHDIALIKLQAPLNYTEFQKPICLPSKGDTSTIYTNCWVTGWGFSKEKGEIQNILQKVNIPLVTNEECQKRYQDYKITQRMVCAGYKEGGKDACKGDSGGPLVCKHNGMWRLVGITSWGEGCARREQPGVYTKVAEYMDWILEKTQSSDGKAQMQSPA
Sequence of human plasma kallikrein (P03952 20-390 partner limits assumed): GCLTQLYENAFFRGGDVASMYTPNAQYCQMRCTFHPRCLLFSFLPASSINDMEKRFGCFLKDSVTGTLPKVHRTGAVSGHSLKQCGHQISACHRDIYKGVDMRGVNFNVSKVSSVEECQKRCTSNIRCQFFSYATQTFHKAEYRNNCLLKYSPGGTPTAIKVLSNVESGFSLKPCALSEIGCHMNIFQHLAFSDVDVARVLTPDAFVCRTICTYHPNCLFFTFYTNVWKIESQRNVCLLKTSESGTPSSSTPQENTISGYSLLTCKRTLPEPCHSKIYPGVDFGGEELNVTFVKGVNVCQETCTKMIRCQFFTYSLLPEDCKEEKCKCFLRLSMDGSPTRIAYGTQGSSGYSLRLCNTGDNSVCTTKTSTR

Compound	IC50 ([1]; unit μM)	IC50 [2]	IC50 ([1]; values in nM)
C[C@H]1C[C@H](c2ncc(-c3cnns3)[nH]2)n2c1nc(-c1c(-n3cnnn3)ccc(Cl)c1F)cc2=O (relative stereo) [Example 106, (6*R,8*S)-6-(5-(1,2,3-Thiadiazol-5-yl)-1H-imidazol-2-yl)-2-(3-chloro-2-fluoro-6-(1H-tetrazol-1-yl)phenyl)-8-methyl-7,8-dihydropyrrolo[1,2-a]pyrimidin-4(6H)-one]	6.4 µM	933 nM	–
Nc1ccc(-c2cnc([C@@H]3CC4(CC4)c4cc(-c5c(-n6cnnn6)ccc(Cl)c5F)cc(=O)n43)[nH]2)c(F)n1 [Example 25, (S)-3′-(5-(6-Amino-2-fluoropyridin-3-yl)-1H-imidazol-2-yl)-7′-(3-chloro-2-fluoro-6-(1H-tetrazol-1-yl)phenyl)-2′,3′-dihydro-5′H-spiro[cyclopropane-1,1′-indolizin]-5′-one]	–	0.6 nM	0.0141 µM
C[C@H]1C[C@@H](c2ncc(-c3ccc(NC(=O)C4CC4)nc3)[nH]2)n2c1nc(-c1c(-n3cnnn3)ccc(Cl)c1F)cc2=O (stereo in doubt) [Example 123, N-(5-(2-((6*S,8*S)-2-(3-Chloro-2-fluoro-6-(1H-tetrazol-1-yl)phenyl)-8-methyl-4-oxo-4,6,7,8-tetrahydropyrrolo[1,2-a]pyrimidin-6-yl)-1H-imidazol-5-yl)pyridin-2-yl)cyclopropanecarboxamide]	–	3.1 nM	0.0175 µM
COC(=O)Nc1ccc(-c2cnc([C@@H]3C[C@H](C)c4cc(-c5c(-n6cnnn6)ccc(Cl)c5F)cc(=O)n43)[nH]2)cc1 [Example 63, Methyl(4-(2-((1S,3S)-7-(3-chloro-2-fluoro-6-(1H-tetrazol-1-yl)phenyl)-1-methyl-5-oxo-1,2,3,5-tetrahydroindolizin-3-yl)-1H-imidazol-5-yl)phenyl)carbamate]	–	0.2 nM	0.0035 µM
Cc1nc(N)c(F)cc1-c1cnc([C@H]2C[C@H](C)c3nc(-c4c(-n5cnnn5)ccc(Cl)c4F)cc(=O)n32)[nH]1 (relative stereo) [Example 129, (6*R,8*S)-6-(5-(6-Amino-5-fluoro-2-methylpyridin-3-yl)-1H-imidazol-2-yl)-2-(3-chloro-2-fluoro-6-(1H-tetrazol-1-yl)phenyl)-8-methyl-7,8-dihydropyrrolo[1,2-a]pyrimidin-4(6H)-one]	1.6 µM	168 nM	–
C[C@H]1C[C@@H](c2ncc(-c3ccc(N)nc3Cl)[nH]2)n2c1nc(-c1c(-n3cnnn3)ccc(Cl)c1F)cc2=O (single isomer, unassigned) [Example 142]	–	0.2 nM	0.0183 µM
C[C@H]1C[C@H](c2ncc(-c3ncc(N)nc3C3CC3)[nH]2)n2c1nc(-c1c(-n3cnnn3)ccc(Cl)c1F)cc2=O (relative stereo) [Example 90, (6*R,8*S)-6-(5-(5-Amino-3-cyclopropylpyrazin-2-yl)-1H-imidazol-2-yl)-2-(3-chloro-2-fluoro-6-(1H-tetrazol-1-yl)phenyl)-8-methyl-7,8-dihydropyrrolo[1,2-a]pyrimidin-4(6H)-one]	–	21.4 nM	0.298 µM
CC(O)c1nccc(-c2cnc([C@@H]3CC4(CC4)c4cc(-c5c(-n6cnnn6)ccc(Cl)c5F)cc(=O)n43)[nH]2)c1F (single isomer, unassigned) [Example 5, (3'S)-7′-(3-Chloro-2-fluoro-6-(1H-tetrazol-1-yl)phenyl)-3′-(5-(3-fluoro-2-(1-hydroxyethyl)pyridin-4-yl)-1H-imidazol-2-yl)-2′,3′-dihydro-5′H-spiro[cyclopropane-1,1′-indolizin]-5′-one]	> 1 µM	> 100 nM	–
C[C@H]1C[C@@H](c2ncc(-c3cc4c(cn3)NC(=O)CC4)[nH]2)n2c1cc(-c1c(-n3cnnn3)ccc(Cl)c1F)cc2=O (single isomer, unassigned) [Example 92, 6-(2-((1S*,3S*)-7-(3-Chloro-2-fluoro-6-(1H-tetrazol-1-yl)phenyl)-1-methyl-5-oxo-1,2,3,5-tetrahydroindolizin-3-yl)-1H-imidazol-5-yl)-3,4-dihydro-1,7-naphthyridin-2(1H)-one]	–	8.3 nM	0.0156 µM
